The term Km denotes the substrate concentration at which the rate is half of its maximum.

This passage reports Km results from paper PMC5219908, “Expression, purification and kinetic characterization of recombinant benzoate dioxygenase from Rhodococcus ruber UKMP-5M” (Molecular Biology Research Communications, 2016).

The subject of this assay is T1, benzoate dioxygenase.
T1 construct: gene benA; benA amplicon 642 bp (about 213 residues, much shorter than a usual BenA of about 450), His-tag from pET28b, E. coli BL21(DE3), ion exchange; primers encode start MELDRGPAG and end RDVPVYPF; no reductase or beta subunit added
Briefly: NADH oxidation at […] nm, Lineweaver-Burk. The class given is biochemical, Rhodococcus ruber. The note with it: 25 °C, 3 min; reduced nicotinamide cofactor (NADH; reagent list prints the phosphate form), FeSO4; substrate range printed as 0.1-1.2 mM, far above the Km; pH of kinetic assay not stated.

Structures are written as SMILES.

For `O=C(O)c1ccccc1` [sodium benzoate], the Km amounted to 5.58 µM.
